Legend:
[1] = Desorption of parabens from paraben impregnated polycarbonate catheter pieces in 0.24 M sodium citrate pH 6.2 (HPLC); type: physicochemical
Description: One inch polycarbonate catheter pieces including a surface area of about 4.64 cm^2 were impregnated with methyl paraben and propyl paraben. A solution of 100% 1,2-propanediol was prepared with 9% methyl paraben and 2% propyl paraben. Pairs of the one inch catheter pieces were placed into three 25 ml flasks including 10 ml of the 1,2-propanediol and paraben solution. The flasks including the catheter pieces were placed on a shaker at 220 rpm and 27° C. for two, four, or nine hour time periods. At the end of each time period, the catheter pieces were removed, rinsed with distilled water, and dried.
Desorption analysis of the paraben impregnated catheter pieces was performed in 0.24 M sodium citrate with a pH of 6.2. The total amount of either methyl paraben or propyl paraben released from the catheter pieces was calculated using HPLC analysis performed with a Waters Alliance 2690 including a 996 Photodiode Array Detector. Each calculation used a solution of HPLC grade H2O, methanol (MeOH), and acetonitrile (CAN) which were pre-filtered through a Millipore 0.45 μm nylon filter before use. Trifluoracetic acid (TFA) was added to H2O and acetonitrile (ACN) to 0.1%. A Waters Symmetry column (C8 3.9×150 mm, 5 μm) was applied with a Waters guard column (Waters, Sentry Guard column, Nova-Pak C18, 60A, 4 μm 3.9×20 mm).
A gradient of 67% H2O/33% ACN was used for 6.5 min, ramped to 45 %/55% from 6.5 to 7.0 min, and kept at 45%/55% until 15.0 min, at 15.0 min the concentration reverted to 67%/33%, and the system was run until 18 min. Injection volume for each sample was 10 μl and samples and column were run at ambient temperature.
Table 2 includes the graphical data represented in FIG. 8 and associated with the desorption of propyl paraben from the paraben impregnated catheter pieces prepared as discussed above. Again, the samples were impregnated only with parabens and desorbed in 10 ml 0.24 M Na-citrate, pH 6.2 over time.

[2] = Perfusion of parabens and methylene blue through polycarbonate membrane in perfusion chamber (HPLC of lower chamber); type: physicochemical
Description: An experiment was performed to determine a method for perfusing methylene blue, methyl paraben, and propyl paraben through a polycarbonate membrane with causing only minimal changes to the strength and elasticity of the membrane. In FIG. 12, there is illustrated a perfusion chamber system 50 used during the experiment. System 50 includes an upper chamber 51 and a lower chamber 52 separated by a polycarbonate membrane 53 having a thickness of 0.60 mm. The upper and lower chambers 51, 52 are generally structured to hold 10.5 cm^3 or 10.5 ml of fluid. The upper chamber 51 was connected to a peristaltic pump (not shown) and the lower chamber 52 was filled with distilled water. First and second solutions, respectively including the parabens and the methylene blue, were prepared in accordance with the method set forth in EXAMPLE 6 above. As best seen in Tables 6 and 7 below, the solutions were connected to the pump and passed through the first chamber 51 at a constant rate at 37° C. over various lengths of time.
Table 6 includes data obtained from HPLC analysis comparing the methyl paraben, propyl paraben, and methylene blue concentrations in the lower chamber 52. The parameters for the methyl and propyl paraben and methylene blue treatments are indicated in the left hand columns.

[3] = lower chamber, 20% PG/80% DI H2O (0.9% MP, 0.2% PP) ~9 hrs at 37 C., then MB ~10 days

desorption by the end of the study ([1]; nearly 3 months, FIGS. 8 and 9): negligible desorption | period of significant release ([1]; paraben impregnated catheter pieces, 0.24 M Na-citrate pH 6.2): 20 days | Total PP released (mg)/1″ catheter ([1]; treatment 2 hrs (100% PG, 9% MP, 2% PP), time 1 hour): 0.048 mg/1″ catheter | Total PP released (mg)/1″ catheter ([1]; treatment 2 hrs (100% PG, 9% MP, 2% PP), time 3 hours): 0.081 mg/1″ catheter | Total PP released (mg)/1″ catheter ([1]; treatment 2 hrs (100% PG, 9% MP, 2% PP), time 7 hours): 0.121 mg/1″ catheter | Total PP released (mg)/1″ catheter ([1]; treatment 2 hrs (100% PG, 9% MP, 2% PP), time 24 hours): 0.121 mg/1″ catheter | Total PP released (mg)/1″ catheter ([1]; treatment 2 hrs (100% PG, 9% MP, 2% PP), time 4 days): 0.153 mg/1″ catheter | Total PP released (mg)/1″ catheter ([1]; treatment 2 hrs (100% PG, 9% MP, 2% PP), time 5 days): 0.182 mg/1″ catheter | Total PP released (mg)/1″ catheter ([1]; treatment 2 hrs (100% PG, 9% MP, 2% PP), time 6 days): 0.209 mg/1″ catheter | Total PP released (mg)/1″ catheter ([1]; treatment 2 hrs (100% PG, 9% MP, 2% PP), time 8 days): 0.239 mg/1″ catheter | Total PP released (mg)/1″ catheter ([1]; treatment 2 hrs (100% PG, 9% MP, 2% PP), time 11 days): 0.264 mg/1″ catheter | Total PP released (mg)/1″ catheter ([1]; treatment 2 hrs (100% PG, 9% MP, 2% PP), time 13 days): 0.288 mg/1″ catheter | Total PP released (mg)/1″ catheter ([1]; treatment 2 hrs (100% PG, 9% MP, 2% PP), time 15 days): 0.311 mg/1″ catheter | Total PP released (mg)/1″ catheter ([1]; treatment 2 hrs (100% PG, 9% MP, 2% PP), time 18 days): 0.332 mg/1″ catheter | Total PP released (mg)/1″ catheter ([1]; treatment 2 hrs (100% PG, 9% MP, 2% PP), time 22 days): 0.352 mg/1″ catheter | Total PP released (mg)/1″ catheter ([1]; treatment 2 hrs (100% PG, 9% MP, 2% PP), time 29 days): 0.37 mg/1″ catheter | Total PP released (mg)/1″ catheter ([1]; treatment 2 hrs (100% PG, 9% MP, 2% PP), time 36 days): 0.387 mg/1″ catheter | Total PP released (mg)/1″ catheter ([1]; treatment 2 hrs (100% PG, 9% MP, 2% PP), time 50 days): 0.404 mg/1″ catheter | Total PP released (mg)/1″ catheter ([1]; treatment 2 hrs (100% PG, 9% MP, 2% PP), time 67 days): 0.417 mg/1″ catheter | Total PP released (mg)/1″ catheter ([1]; treatment 2 hrs (100% PG, 9% MP, 2% PP), time 81 days): 0.429 mg/1″ catheter | Total PP released (mg)/1″ catheter ([1]; treatment 4 hrs (100% PG, 9% MP, 2% PP), time 1 hour): 0.007 mg/1″ catheter | Total PP released (mg)/1″ catheter ([1]; treatment 4 hrs (100% PG, 9% MP, 2% PP), time 3 hours): 0.069 mg/1″ catheter | Total PP released (mg)/1″ catheter ([1]; treatment 4 hrs (100% PG, 9% MP, 2% PP), time 7 hours): 0.138 mg/1″ catheter | Total PP released (mg)/1″ catheter ([1]; treatment 4 hrs (100% PG, 9% MP, 2% PP), time 24 hours): 0.208 mg/1″ catheter | Total PP released (mg)/1″ catheter ([1]; treatment 4 hrs (100% PG, 9% MP, 2% PP), time 4 days): 0.254 mg/1″ catheter | Total PP released (mg)/1″ catheter ([1]; treatment 4 hrs (100% PG, 9% MP, 2% PP), time 5 days): 0.293 mg/1″ catheter | Total PP released (mg)/1″ catheter ([1]; treatment 4 hrs (100% PG, 9% MP, 2% PP), time 6 days): 0.326 mg/1″ catheter | Total PP released (mg)/1″ catheter ([1]; treatment 4 hrs (100% PG, 9% MP, 2% PP), time 8 days): 0.362 mg/1″ catheter | Total PP released (mg)/1″ catheter ([1]; treatment 4 hrs (100% PG, 9% MP, 2% PP), time 11 days): 0.393 mg/1″ catheter | Total PP released (mg)/1″ catheter ([1]; treatment 4 hrs (100% PG, 9% MP, 2% PP), time 13 days): 0.424 mg/1″ catheter | Total PP released (mg)/1″ catheter ([1]; treatment 4 hrs (100% PG, 9% MP, 2% PP), time 15 days): 0.45 mg/1″ catheter | Total PP released (mg)/1″ catheter ([1]; treatment 4 hrs (100% PG, 9% MP, 2% PP), time 18 days): 0.476 mg/1″ catheter | Total PP released (mg)/1″ catheter ([1]; treatment 4 hrs (100% PG, 9% MP, 2% PP), time 22 days): 0.497 mg/1″ catheter | Total PP released (mg)/1″ catheter ([1]; treatment 4 hrs (100% PG, 9% MP, 2% PP), time 29 days): 0.518 mg/1″ catheter | Total PP released (mg)/1″ catheter ([1]; treatment 4 hrs (100% PG, 9% MP, 2% PP), time 36 days): 0.539 mg/1″ catheter | Total PP released (mg)/1″ catheter ([1]; treatment 4 hrs (100% PG, 9% MP, 2% PP), time 50 days): 0.569 mg/1″ catheter | Total PP released (mg)/1″ catheter ([1]; treatment 4 hrs (100% PG, 9% MP, 2% PP), time 67 days): 0.585 mg/1″ catheter | Total PP released (mg)/1″ catheter ([1]; treatment 4 hrs (100% PG, 9% MP, 2% PP), time 81 days): 0.6 mg/1″ catheter | Total PP released (mg)/1″ catheter ([1]; treatment 9 hrs (100% PG, 9% MP, 2% PP), time 1 hour): 0.082 mg/1″ catheter | Total PP released (mg)/1″ catheter ([1]; treatment 9 hrs (100% PG, 9% MP, 2% PP), time 3 hours): 0.124 mg/1″ catheter | Total PP released (mg)/1″ catheter ([1]; treatment 9 hrs (100% PG, 9% MP, 2% PP), time 7 hours): 0.175 mg/1″ catheter | Total PP released (mg)/1″ catheter ([1]; treatment 9 hrs (100% PG, 9% MP, 2% PP), time 24 hours): 0.221 mg/1″ catheter | Total PP released (mg)/1″ catheter ([1]; treatment 9 hrs (100% PG, 9% MP, 2% PP), time 4 days): 0.279 mg/1″ catheter | Total PP released (mg)/1″ catheter ([1]; treatment 9 hrs (100% PG, 9% MP, 2% PP), time 5 days): 0.331 mg/1″ catheter | Total PP released (mg)/1″ catheter ([1]; treatment 9 hrs (100% PG, 9% MP, 2% PP), time 6 days): 0.375 mg/1″ catheter | Total PP released (mg)/1″ catheter ([1]; treatment 9 hrs (100% PG, 9% MP, 2% PP), time 8 days): 0.422 mg/1″ catheter | Total PP released (mg)/1″ catheter ([1]; treatment 9 hrs (100% PG, 9% MP, 2% PP), time 11 days): 0.463 mg/1″ catheter | Total PP released (mg)/1″ catheter ([1]; treatment 9 hrs (100% PG, 9% MP, 2% PP), time 13 days): 0.5 mg/1″ catheter | Total PP released (mg)/1″ catheter ([1]; treatment 9 hrs (100% PG, 9% MP, 2% PP), time 15 days): 0.533 mg/1″ catheter | Total PP released (mg)/1″ catheter ([1]; treatment 9 hrs (100% PG, 9% MP, 2% PP), time 18 days): 0.565 mg/1″ catheter | Total PP released (mg)/1″ catheter ([1]; treatment 9 hrs (100% PG, 9% MP, 2% PP), time 22 days): 0.594 mg/1″ catheter | Total PP released (mg)/1″ catheter ([1]; treatment 9 hrs (100% PG, 9% MP, 2% PP), time 29 days): 0.622 mg/1″ catheter | Total PP released (mg)/1″ catheter ([1]; treatment 9 hrs (100% PG, 9% MP, 2% PP), time 36 days): 0.65 mg/1″ catheter | Total PP released (mg)/1″ catheter ([1]; treatment 9 hrs (100% PG, 9% MP, 2% PP), time 50 days): 0.687 mg/1″ catheter | Total PP released (mg)/1″ catheter ([1]; treatment 9 hrs (100% PG, 9% MP, 2% PP), time 67 days): 0.708 mg/1″ catheter | Total PP released (mg)/1″ catheter ([1]; treatment 9 hrs (100% PG, 9% MP, 2% PP), time 81 days): 0.727 mg/1″ catheter | time until perfused through the membrane and detected in the lower chamber ([2]; 0.60 mm polycarbonate membrane, 37° C.): within two hours | PP conc [2, 3]: 0.01 mg/mL | Total mg PP in 10.5 ml lower chamber [2, 3]: 0.105 mg
SMILES: CCCOC(=O)c1ccc(O)cc1 [PP, propyl paraben]
